From ChEMBL document CHEMBL1201862, “PubChem BioAssay data set” (2004)
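Where inhibition never reached the appropriate level, the endpoint shown equals the highest concentration tested. Otherwise, values were interpolated linearly from a five-concentration, 48-hour dose response in 96-well plates. GI50 is the concentration that inhibits growth by half.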 Calls of active or inactive are those of the source. Cut-off read from the data, not from the text of the source: active = GI50 up to about 1.1 µM and inactive = higher.

Key:
Assay in all cases: NCI tumour cell line growth inhibition, 48 h
786-0 = system: 786-0
A498 = system: A498
A549 = system: A549
ACHN = system: ACHN
CCRF-CEM = system: CCRF-CEM
COLO 205 = system: COLO 205
DLD-1 = system: DLD-1
DMS-114 = system: DMS-114
DMS-273 = system: DMS-273
EKVX = system: EKVX
HCC 2998 = system: HCC 2998
HCT-116 = system: HCT-116
HCT-15 = system: HCT-15
HL-60 = system: HL-60
HOP-18 = system: HOP-18
HOP-62 = system: HOP-62
HOP-92 = system: HOP-92
HT-29 = system: HT-29
IGROV-1 = system: IGROV-1
K562 = system: K562
KM-20L2 = system: KM-20L2
KM12 = system: KM12
LOX IMVI = system: LOX IMVI
LXFL 529 = system: LXFL 529
M14 = system: M14
M19-MEL = system: M19-MEL
MOLT-4 = system: MOLT-4
Malme-3M = system: Malme-3M
NCI-H226 = system: NCI-H226
NCI-H23 = system: NCI-H23
NCI-H460 = system: NCI-H460
NCI-H522 = system: NCI-H522
OVCAR-3 = system: OVCAR-3
OVCAR-4 = system: OVCAR-4
OVCAR-5 = system: OVCAR-5
OVCAR-8 = system: OVCAR-8
RPMI-8226 = system: RPMI-8226
RXF 393 = system: RXF 393
RXF 631 = system: RXF 631
SF-268 = system: SF-268
SF-295 = system: SF-295
SF-539 = system: SF-539
SK-MEL-28 = system: SK-MEL-28
SK-MEL-5 = system: SK-MEL-5
SK-OV-3 = system: SK-OV-3
SN12C = system: SN12C
SNB-19 = system: SNB-19
SNB-75 = system: SNB-75
SNB-78 = system: SNB-78
SR = system: SR
SW-620 = system: SW-620
TK-10 = system: TK-10
U-251 = system: U-251
UACC-257 = system: UACC-257
UACC-62 = system: UACC-62
UO-31 = system: UO-31
CAKI-1 = system: CAKI-1
SK-MEL-2 = system: SK-MEL-2
XF498 = system: XF498

With `CC(C)(CN1CCCCC1)C(=O)/C=C/c1ccc(Cl)cc1` the GI50 (786-0) was 2.72 µM (inactive), the GI50 (A498) was 2.73 µM (inactive) and the GI50 (A549) was 3.42 µM (inactive). The GI50 (ACHN) was 5.12 µM (inactive), the GI50 (CCRF-CEM) was 2.09 µM (inactive) and the GI50 (COLO 205) was 4.82 µM (inactive). For the same molecule, the GI50 (DLD-1) was 4.49 µM (inactive), the GI50 (DMS-114) was 3.65 µM (inactive) and the GI50 (DMS-273) was 3.52 µM (inactive). The GI50 (EKVX) was 3.3 µM (inactive), the GI50 (HCC 2998) was 13.2 µM (inactive) and the GI50 (HCT-116) was 3.4 µM (inactive). The GI50 (HCT-15) was 2.65 µM, the GI50 (HL-60) was 2.15 µM (inactive) and the GI50 (HOP-18) was 11.1 µM (inactive). For the same molecule, the GI50 (HOP-62) was > 10 µM (inactive), the GI50 (HOP-92) was 1.6 µM (inactive) and the GI50 (HT-29) was 3.22 µM (inactive). The GI50 (IGROV-1) was > 10 µM (inactive), the GI50 (K562) was 2.69 µM (inactive) and the GI50 (KM-20L2) was 2.36 µM (inactive). The GI50 (KM12) was 2.95 µM (inactive), the GI50 (LOX IMVI) was 2.84 µM (inactive) and the GI50 (LXFL 529) was 2.54 µM (inactive). For the same molecule, the GI50 (M14) was 2.51 µM (inactive), the GI50 (M19-MEL) was 6.76 µM (inactive) and the GI50 (MOLT-4) was 1.81 µM (inactive). For the same molecule, the GI50 (Malme-3M) was 5.06 µM (inactive), the GI50 (NCI-H226) was 4.41 µM (inactive) and the GI50 (NCI-H23) was 2.69 µM (inactive). The GI50 (NCI-H460) was 2.69 µM (inactive), the GI50 (NCI-H522) was 2.73 µM (inactive) and the GI50 (OVCAR-3) was 2.77 µM (inactive). The GI50 (OVCAR-4) was 4.27 µM (inactive), the GI50 (OVCAR-5) was 11.4 µM (inactive) and the GI50 (OVCAR-8) was 2.32 µM (inactive). The GI50 (RPMI-8226) was 2.94 µM (inactive), the GI50 (RXF 393) was 3.86 µM (inactive) and the GI50 (RXF 631) was 9.29 µM (inactive). For the same molecule, the GI50 (SF-268) was 3.34 µM (inactive), the GI50 (SF-295) was 3.03 µM (inactive) and the GI50 (SF-539) was 2.23 µM (inactive). The GI50 (SK-MEL-28) was 8.17 µM (inactive), the GI50 (SK-MEL-5) was 3.08 µM (inactive) and the GI50 (SK-OV-3) was 11.2 µM (inactive). The GI50 (SN12C) was 2.61 µM (inactive), the GI50 (SNB-19) was 5.15 µM (inactive) and the GI50 (SNB-75) was 2.44 µM (inactive). The GI50 (SNB-78) was 3.24 µM (inactive), the GI50 (SR) was 2.58 µM (inactive) and the GI50 (SW-620) was 2.57 µM (inactive). For the same molecule, the GI50 (TK-10) was 15.3 µM (inactive), the GI50 (U-251) was 3.51 µM (inactive) and the GI50 (UACC-257) was 6.4 µM (inactive). The GI50 (UACC-62) was 5.35 µM (inactive) and the GI50 (UO-31) was 7.5 µM (inactive).

In the case of `COc1ccccc1/C=C1\N=C(C)OC1=O`, the GI50 (CAKI-1) is reported as > 100 µM (inactive), the GI50 (CCRF-CEM) is reported as 56 µM (inactive) and the GI50 (COLO 205) is reported as > 100 µM (inactive). For the same molecule, the GI50 (DLD-1) was > 100 µM (inactive), the GI50 (HCC 2998) was > 100 µM (inactive) and the GI50 (HCT-15) was over 100 µM. The GI50 (HOP-92) was > 100 µM (inactive), the GI50 (HT-29) was > 100 µM (inactive) and the GI50 (IGROV-1) was > 100 µM (inactive). The GI50 (K562) was > 100 µM (inactive), the GI50 (KM-20L2) was > 100 µM (inactive) and the GI50 (KM12) was > 100 µM (inactive). The GI50 (M14) was > 100 µM (inactive), the GI50 (M19-MEL) was > 100 µM (inactive) and the GI50 (MOLT-4) was > 100 µM (inactive). The GI50 (Malme-3M) was > 100 µM (inactive), the GI50 (NCI-H23) was > 100 µM (inactive) and the GI50 (NCI-H522) was > 100 µM (inactive). The GI50 (OVCAR-3) was > 100 µM (inactive), the GI50 (OVCAR-4) was > 100 µM (inactive) and the GI50 (OVCAR-5) was > 100 µM (inactive). For the same molecule, the GI50 (OVCAR-8) was > 100 µM (inactive), the GI50 (RXF 393) was > 100 µM (inactive) and the GI50 (RXF 631) was > 100 µM (inactive). For the same molecule, the GI50 (SF-295) was > 100 µM (inactive), the GI50 (SK-MEL-28) was > 100 µM (inactive) and the GI50 (SK-MEL-2) was > 100 µM (inactive). The GI50 (SK-MEL-5) was > 100 µM (inactive), the GI50 (SK-OV-3) was > 100 µM (inactive) and the GI50 (SN12C) was > 100 µM (inactive). The GI50 (SNB-19) was > 100 µM (inactive), the GI50 (SNB-78) was > 100 µM (inactive) and the GI50 (SR) was > 100 µM (inactive). The GI50 (SW-620) was > 100 µM (inactive), the GI50 (TK-10) was > 100 µM (inactive) and the GI50 (U-251) was > 100 µM (inactive). For the same molecule, the GI50 (UACC-62) was > 100 µM (inactive), the GI50 (UO-31) was > 100 µM (inactive) and the GI50 (XF498) was > 100 µM (inactive).
